In patent publication US8778923B2, “GLP-1 receptor modulators” (Receptos, Inc., priority 2011, dated 2014):

Target: T1, GLP-1R (Homo sapiens, UniProt P43220)
T1 construct: host or cells: CRE-bla CHO-K1
Test: EC20 GLP-1(9-36) PAM cAMP assay: dose response of compound in the presence of fixed concentration of GLP-1(9-36)
Assay type: cell-based
Conditions: GLP-1R CRE-bla CHO-K1 cells, compound dose response in presence of fixed concentration of GLP-1(9-36)
Procedure, shortened: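 GLP-1R CRE-bla CHO-K1 cells in HBSS/10 mM Hepes/0.1% BSA pH 7.4 with IBMX got a 12-point compound dose response plus fixed EC20 GLP-1(9-36), 30 min at 37 °C. cAMP measured by HitHunter luminescence against a standard curve; EC50 and Emax by non-linear regression.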

T1 sequence (P43220 24-463): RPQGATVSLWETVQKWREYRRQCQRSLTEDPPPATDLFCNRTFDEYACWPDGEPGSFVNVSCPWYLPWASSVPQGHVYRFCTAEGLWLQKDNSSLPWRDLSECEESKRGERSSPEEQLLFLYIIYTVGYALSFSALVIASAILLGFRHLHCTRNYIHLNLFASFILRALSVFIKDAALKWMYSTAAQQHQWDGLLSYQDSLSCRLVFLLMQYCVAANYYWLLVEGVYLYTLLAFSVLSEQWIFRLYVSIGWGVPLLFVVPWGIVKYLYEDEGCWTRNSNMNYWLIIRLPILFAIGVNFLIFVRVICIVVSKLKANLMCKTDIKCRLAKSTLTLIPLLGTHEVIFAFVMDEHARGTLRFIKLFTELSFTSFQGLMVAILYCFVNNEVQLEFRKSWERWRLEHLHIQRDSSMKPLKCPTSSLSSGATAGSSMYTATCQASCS
T1 sequence (P01275 100-127 partner limits assumed): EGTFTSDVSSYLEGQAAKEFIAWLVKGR

| SMILES | EC50 [nM] |
| --- | --- |
| CCCCCCCOc1ccc(-c2cnc(-c3ccc(C[C@H](NC(=O)c4ccc(C(C)C)cc4)C(=O)N[C@H](CO)C(=O)O)cc3)nc2)cc1 [Compound 315] | 800 to 2500 |
| CCCCCCCOc1ccc(-c2cnc(-c3ccc(C[C@H](NC(=O)c4ccc(C(C)C)cc4)C(=O)N[C@H](Cc4cnc[nH]4)C(=O)O)cc3)nc2)cc1 [Compound 316] | < 800 |
| CCCCCCCOc1ccc(-c2cnc(-c3ccc(C[C@H](NC(=O)c4ccc(C(C)C)cc4)C(=O)NCC(=O)O)cc3)nc2)cc1 [Compound 317] | < 800 |
| CCCCCCOc1ccc(-c2cnc(-c3ccc(C[C@H](NC(=O)c4ccc(C(C)(C)C)cc4)C(=O)NCC(=O)O)cc3)nc2)cc1 [Compound 318] | < 800 |
| CCCCCCCOc1ccc(-c2cnc(-c3ccc(C[C@H](NC(=O)c4ccc(C(C)(C)C)s4)C(=O)NCC(=O)O)cc3)nc2)cc1 [Compound 319, (S)-(2-(5-(tert-butyl)thiophene-2-carboxamido)-3-(4-(5-(4-(heptyloxy)phenyl)pyrimidin-2-yl)phenyl)propanoyl)glycine] | < 800 |
| CCCCCCCOc1ccc(-c2cnc(-c3ccc(C[C@H](NC(=O)c4ccc(C(C)(C)C)s4)C(=O)N[C@@H](CCC(N)=O)C(=O)O)cc3)nc2)cc1 [Compound 320, ((S)-2-(5-(tert-butyl)thiophene-2-carboxamido)-3-(4-(5-(4-(heptyloxy)phenyl)pyrimidin-2-yl)phenyl)propanoyl)-L-glutamine] | < 800 |
| CCCCCCCOc1ccc(-c2cnc(-c3ccc(C[C@H](NC(=O)c4ccc(C(C)(C)C)s4)C(=O)N[C@@H](CC(N)=O)C(=O)O)cc3)nc2)cc1 [Compound 321] | < 800 |
| CCCCCCCOc1ccc(-c2cnc(-c3ccc(C[C@H](NC(=O)c4ccc(C(C)(C)C)s4)C(=O)N[C@@H](CC(=O)O)C(=O)O)cc3)nc2)cc1 [Compound 322] | 800 to 2500 |
| CCCCCCCOc1ccc(-c2cnc(-c3ccc(C[C@H](NC(=O)c4ccc(C(C)(C)C)s4)C(=O)N[C@H](CO)C(=O)O)cc3)nc2)cc1 [Compound 323] | < 800 |
| CCCCCCCOc1ccc(-c2cnc(-c3ccc(C[C@H](NC(=O)c4ccc(C(C)(C)C)s4)C(=O)N[C@H](CC(=O)O)C(=O)O)cc3)nc2)cc1 [Compound 324] | 800 to 2500 |
| CCCCCCCOc1ccc(-c2cnc(-c3ccc(C[C@H](NC(=O)c4ccc(C(C)(C)C)s4)C(=O)N[C@H](Cc4cnc[nH]4)C(=O)O)cc3)nc2)cc1 [Compound 325] | 5000 to 10000 |
| CCCCCCCOc1ccc(-c2cnc(-c3ccc(C[C@H](NC(=O)c4ccc(C(C)(C)C)s4)C(=O)N[C@@H](CO)C(=O)O)cc3)nc2)cc1 [Compound 326] | < 800 |
| CCCCCCCOc1ccc(-c2cnc(-c3ccc(C[C@H](NC(=O)c4ccc(C(C)(C)C)s4)C(=O)N[C@H](C)C(=O)O)cc3)nc2)cc1 [Compound 327] | < 800 |
| CCCCCCCOc1ccc(-c2cnc(-c3ccc(C[C@H](NC(=O)c4ccc(C(C)(C)C)s4)C(=O)N4CCC[C@H]4C(=O)O)cc3)nc2)cc1 [Compound 328] | 800 to 2500 |
| CCCCCCCOc1ccc(-c2cnc(-c3ccc(C[C@H](NC(=O)c4ccc(C(C)(C)C)s4)C(=O)N4CCC[C@@H]4C(=O)O)cc3)nc2)cc1 [Compound 329] | 800 to 2500 |
| CCCCCCCOc1ccc(-c2cnc(-c3ccc(C[C@H](NC(=O)c4ccc(C(C)(C)C)s4)C(=O)N[C@@H](CCC(=O)O)C(=O)O)cc3)nc2)cc1 [Compound 330] | 800 to 2500 |
| CCCCCCCOc1ccc(-c2cnc(-c3ccc(C[C@H](NC(=O)c4ccc(C(C)(C)C)s4)C(=O)N[C@H](CCC(=O)O)C(=O)O)cc3)nc2)cc1 [Compound 331] | 800 to 2500 |
| CCCCCCCOc1ccc(-c2cnc(-c3ccc(C[C@H](NC(=O)c4ccc(C(C)(C)C)s4)C(=O)N[C@@H](Cc4cnc[nH]4)C(=O)O)cc3)nc2)cc1 [Compound 332] | 800 to 2500 |
| CCCCCCCOc1ccc(-c2cnc(-c3ccc(C[C@H](NC(=O)c4ccc(C(C)(C)C)s4)C(=O)N[C@@H](C)C(=O)O)cc3)nc2)cc1 [Compound 333] | < 800 |
| CCCCCCCOc1ccc(-c2cnc(-c3ccc(C[C@H](NC(=O)c4ccc(C(C)(C)C)s4)C(=O)N(C)CCC(=O)O)cc3)nc2)cc1 [Compound 334] | 800 to 2500 |
| CCCCCCCOc1ccc(-c2cnc(-c3ccc(C[C@H](NC(=O)c4ccc(C(C)(C)C)s4)C(=O)NC(C)(C)CC(=O)O)cc3)nc2)cc1 [Compound 335] | 800 to 2500 |
| CCCCCCCOc1ccc(-c2cnc(-c3ccc(C[C@H](NC(=O)c4ccc(C(C)(C)C)s4)C(=O)NCCC(=O)O)cc3)nc2)cc1 [Compound 336] | < 800 |
| CCCCCCCOc1ccc(-c2cnc(-c3ccc(C[C@H](NC(=O)c4ccc(C(C)(C)C)s4)C(=O)NC(CN(C)C)C(=O)O)cc3)nc2)cc1 (stereo partly drawn) [Compound 337] | 800 to 2500 |
| CCCCCCCOc1ccc(-c2cnc(-c3ccc(C[C@H](NC(=O)c4ccc(C(C)(C)C)s4)C(=O)NC(CN4CCCC4)C(=O)O)cc3)nc2)cc1 (stereo partly drawn) [Compound 338] | 800 to 2500 |
| CCCCCCCOc1ccc(-c2cnc(-c3ccc(C[C@H](NC(=O)c4ccc(C(C)(C)C)s4)C(=O)N4CCNC(C(=O)O)C4)cc3)nc2)cc1 (stereo partly drawn) [Compound 339] | 800 to 2500 |
| CCCCCCCOc1ccc(-c2cnc(-c3ccc(C[C@H](NC(=O)c4ccc(C(C)(C)C)s4)C(=O)NCC4(C(=O)O)CC4)cc3)nc2)cc1 [Compound 340] | 800 to 2500 |

| SMILES | EC50 [nM] |
| --- | --- |
| CCCCCCCOc1ccc(-c2cnc(-c3ccc(C[C@H](NC(=O)c4ccc(C(C)(C)C)s4)C(=O)N[C@H](CCC(N)=O)C(=O)O)cc3)nc2)cc1 [Compound 341] | < 800 |
| CCCCCCOc1ccc(-c2cnc(-c3ccc(C[C@H](NC(=O)c4ccc(C(C)(C)C)s4)C(=O)NCC4(C(=O)O)CCC4)cc3)nc2)cc1 [Compound 342] | 800 to 2500 |
| CCCCCCCOc1ccc(-c2cnc(-c3ccc(C[C@H](NC(=O)c4ccc(C(C)(C)C)s4)C(=O)N[C@H](CC(=O)O)Cc4ccccc4)cc3)nc2)cc1 [Compound 343] | 800 to 2500 |
| CCCCCCCOc1ccc(-c2cnc(-c3ccc(C[C@H](NC(=O)c4ccc(C(C)(C)C)s4)C(=O)N4CCC(C(=O)O)C4)cc3)nc2)cc1 (stereo partly drawn) [Compound 344] | < 800 |
| CCCCCCCOc1ccc(-c2cnc(-c3ccc(C[C@H](NC(=O)c4ccc(C(C)(C)C)s4)C(=O)N[C@H](C)CC(=O)O)cc3)nc2)cc1 [Compound 345] | < 800 |
| CCCCCCCOc1ccc(-c2cnc(-c3ccc(C[C@H](NC(=O)c4ccc(C(C)(C)C)s4)C(=O)N[C@@H](C)CC(=O)O)cc3)nc2)cc1 [Compound 346] | 800 to 2500 |
| CCCCCCCOc1ccc(-c2cnc(-c3ccc(C[C@H](NC(=O)c4ccc(C(C)(C)C)s4)C(=O)N4CCCC(C(=O)O)C4)cc3)nc2)cc1 (stereo partly drawn) [Compound 347] | < 800 |
| CCCCCCCOc1ccc(-c2cnc(-c3ccc(C[C@H](NC(=O)c4ccc(C(C)(C)C)s4)C(=O)N4CC[C@@H](C(=O)O)C4)cc3)nc2)cc1 [Compound 348] | 800 to 2500 |
| CCCCCCCOc1ccc(-c2cnc(-c3ccc(C[C@H](NC(=O)c4ccc(C(C)(C)C)s4)C(=O)N4CC[C@H](C(=O)O)C4)cc3)nc2)cc1 [Compound 349] | < 800 |
| CCCCCCCOc1ccc(-c2cnc(-c3ccc(C[C@H](NC(=O)c4ccc(C(C)(C)C)s4)C(=O)NC(CC(=O)O)c4ccc(O)cc4)cc3)nc2)cc1 (stereo partly drawn) [Compound 350] | < 800 |
| CC(C)(C)c1ccc(-c2cnc(-c3ccc(C[C@H](NC(=O)c4ccc(C(C)(C)C)s4)C(=O)NCC(=O)O)cc3)nc2)cc1 [Compound 351] | < 800 |
| CC(C)(C)c1ccc(-c2cnc(-c3ccc(C[C@H](NC(=O)c4ccc(C(C)(C)C)s4)C(=O)N[C@@H](CO)C(=O)O)cc3)nc2)cc1 [Compound 352] | < 800 |
| CC(C)(C)c1ccc(-c2cnc(-c3ccc(C[C@H](NC(=O)c4ccc(C(C)(C)C)s4)C(=O)N[C@H](CCC(N)=O)C(=O)O)cc3)nc2)cc1 [Compound 353] | 800 to 2500 |
| CC(C)(C)c1ccc(-c2cnc(-c3ccc(C[C@H](NC(=O)c4ccc(C(C)(C)C)s4)C(=O)N[C@H](CO)C(=O)O)cc3)nc2)cc1 [Compound 354] | < 800 |
| CC(C)(C)c1ccc(-c2cnc(-c3ccc(C[C@H](NC(=O)c4ccc(C(C)(C)C)s4)C(=O)N[C@H](CC(=O)O)C(=O)O)cc3)nc2)cc1 [Compound 355] | 800 to 2500 |
| CC(C)(C)c1ccc(-c2cnc(-c3ccc(C[C@H](NC(=O)c4ccc(C(C)(C)C)s4)C(=O)N[C@H](Cc4cnc[nH]4)C(=O)O)cc3)nc2)cc1 [Compound 356] | 800 to 2500 |
| C[C@@H](NC(=O)[C@H](Cc1ccc(-c2ncc(-c3ccc(C(C)(C)C)cc3)cn2)cc1)NC(=O)c1ccc(C(C)(C)C)s1)C(=O)O [Compound 357] | 800 to 2500 |
| CC(C)(C)c1ccc(-c2cnc(-c3ccc(C[C@H](NC(=O)c4ccc(C(C)(C)C)s4)C(=O)N4CCC[C@@H]4C(=O)O)cc3)nc2)cc1 [Compound 358] | 800 to 2500 |
| CC(C)(C)c1ccc(-c2cnc(-c3ccc(C[C@H](NC(=O)c4ccc(C(C)(C)C)s4)C(=O)N[C@H](CCC(=O)O)C(=O)O)cc3)nc2)cc1 [Compound 359] | 800 to 2500 |
| CC(C)(C)c1ccc(-c2cnc(-c3ccc(C[C@H](NC(=O)c4ccc(C(C)(C)C)s4)C(=O)N[C@@H](CCC(N)=O)C(=O)O)cc3)nc2)cc1 [Compound 360] | 800 to 2500 |
| CC(C)(C)c1ccc(-c2cnc(-c3ccc(C[C@H](NC(=O)c4ccc(C(C)(C)C)s4)C(=O)N[C@@H](CC(=O)O)C(=O)O)cc3)nc2)cc1 [Compound 361] | 800 to 2500 |
| CC(C)(C)c1ccc(-c2cnc(-c3ccc(C[C@H](NC(=O)c4ccc(C(C)(C)C)s4)C(=O)N4CCC[C@H]4C(=O)O)cc3)nc2)cc1 [Compound 362] | 2500 to 5000 |
| CC(C)(C)c1ccc(-c2cnc(-c3ccc(C[C@H](NC(=O)c4ccc(C(C)(C)C)s4)C(=O)N[C@@H](CCC(=O)O)C(=O)O)cc3)nc2)cc1 [Compound 363] | 800 to 2500 |
| C[C@H](NC(=O)[C@H](Cc1ccc(-c2ncc(-c3ccc(C(C)(C)C)cc3)cn2)cc1)NC(=O)c1ccc(C(C)(C)C)s1)C(=O)O [Compound 364] | 800 to 2500 |
| CC(C)(C)c1ccc(-c2cnc(-c3ccc(C[C@H](NC(=O)c4ccc(C(C)(C)C)s4)C(=O)NC(CN4CCCC4)C(=O)O)cc3)nc2)cc1 (stereo partly drawn) [Compound 365] | 2500 to 5000 |
